Values of other authors as cited in patent publication US6773669B1, “Flow electroporation chamber and method” (Maxcyte, Inc., priority 1995, dated 2004).

Experiments:
hemoglobin [1] = target: T1, hemoglobin (Homo sapiens, UniProt P68871); settings: higher than DPG; Benesch et al. 1977
hemoglobin [2] = target: T1, hemoglobin; settings: pH 7.4, 37 degrees C; J. Biol. Chem. 1975
[3] = experimental animals; DPG or precursors of DPG; transient

T1 sequence (P68871 2-147 limits assumed): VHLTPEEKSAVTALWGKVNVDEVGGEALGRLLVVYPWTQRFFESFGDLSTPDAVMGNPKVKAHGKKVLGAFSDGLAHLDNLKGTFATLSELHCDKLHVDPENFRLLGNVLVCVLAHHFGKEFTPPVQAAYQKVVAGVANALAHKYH
T1 sequence (P69905 2-142 partner limits assumed): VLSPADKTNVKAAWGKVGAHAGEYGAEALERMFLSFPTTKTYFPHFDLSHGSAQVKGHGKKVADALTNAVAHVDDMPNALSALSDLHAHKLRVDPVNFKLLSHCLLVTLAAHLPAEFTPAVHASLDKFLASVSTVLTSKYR

| affinity to hemoglobin relative to DPG (hemoglobin [1]) | P50 of hemoglobin (hemoglobin [2]) | Structure (SMILES) | duration of elevation of oxygen deposition [3] |
| --- | --- | --- | --- |
| 1000 fold | ≤ 96.4 mm Hg | O=P(O)(O)O[C@H]1[C@H](OP(=O)(O)O)[C@@H](OP(=O)(O)O)[C@H](OP(=O)(O)O)[C@@H](OP(=O)(O)O)[C@H]1OP(=O)(O)O [IHP, inositol hexaphosphate] | – |
| – | – | O=C(O)C(COP(=O)(O)O)OP(=O)(O)O (stereo not drawn) [DPG, 2,3-diphosphoglycerate] | 6 to 12 h |
